Target: T1, NLRP3 (Homo sapiens, UniProt Q96P20)
T1 construct: host or cells: THP-1 cells differentiated with PMA
Assay: IL-1β Secretion Assay (NLRP3-dependent IL1β secretion in THP1 cells)
Assay type: cell-based
Conditions: PMA-differentiated THP-1 cells; compounds incubated 20 h; 2.5 μM Nigericin 3 h; HTRF IL-1β readout; read-out: IC50 IL-1β Inhibition
In short: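 THP-1 cells differentiated with 100 ng/mL PMA for 24 h, then given compound (7-point 3-fold series, 1:200 from DMSO) for 20 h in RPMI+5% FBS. NLRP3 activated with 2.5 μM nigericin for 3 h; secreted IL-1β measured by HTRF; IC50 from logistic fit of % inhibition.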

T1 sequence (Q96P20 whole entry): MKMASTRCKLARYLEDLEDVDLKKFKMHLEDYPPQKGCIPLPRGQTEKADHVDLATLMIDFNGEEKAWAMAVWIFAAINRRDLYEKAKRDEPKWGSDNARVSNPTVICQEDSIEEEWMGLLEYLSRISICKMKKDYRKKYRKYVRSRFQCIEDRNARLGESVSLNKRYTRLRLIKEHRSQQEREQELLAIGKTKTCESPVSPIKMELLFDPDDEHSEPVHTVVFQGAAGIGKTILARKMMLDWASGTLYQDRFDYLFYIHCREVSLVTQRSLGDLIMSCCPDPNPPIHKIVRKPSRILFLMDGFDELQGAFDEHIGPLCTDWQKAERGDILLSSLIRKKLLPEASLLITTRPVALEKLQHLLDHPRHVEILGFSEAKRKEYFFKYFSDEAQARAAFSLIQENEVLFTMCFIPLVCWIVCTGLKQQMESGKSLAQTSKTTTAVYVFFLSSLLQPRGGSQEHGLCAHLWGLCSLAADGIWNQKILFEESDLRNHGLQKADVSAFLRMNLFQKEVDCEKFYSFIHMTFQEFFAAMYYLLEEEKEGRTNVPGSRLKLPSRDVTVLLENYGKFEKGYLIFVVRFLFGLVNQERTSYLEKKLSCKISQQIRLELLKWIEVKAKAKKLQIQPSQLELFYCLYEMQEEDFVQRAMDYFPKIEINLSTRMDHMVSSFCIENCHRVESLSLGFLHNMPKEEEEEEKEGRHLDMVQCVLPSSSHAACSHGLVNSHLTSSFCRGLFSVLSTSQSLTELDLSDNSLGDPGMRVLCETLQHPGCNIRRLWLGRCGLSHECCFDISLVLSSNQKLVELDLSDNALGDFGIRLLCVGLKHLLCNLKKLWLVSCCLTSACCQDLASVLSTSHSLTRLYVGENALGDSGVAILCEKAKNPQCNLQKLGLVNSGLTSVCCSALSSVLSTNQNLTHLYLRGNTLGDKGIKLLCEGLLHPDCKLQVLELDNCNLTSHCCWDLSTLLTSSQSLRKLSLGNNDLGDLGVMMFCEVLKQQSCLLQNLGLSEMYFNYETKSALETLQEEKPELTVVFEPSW

IC50	Compound
1 to 10 nM	Cc1cc2c(-c3ccc(C(F)(F)F)cc3OC(F)F)nnc(NC(C)c3cccc(O)c3)n2n1 (centres unmarked) [Compound 383, 3-[1-({4-[2-(difluoromethoxy)-4-(trifluoromethyl)phenyl]-2-methylpyrazolo[1,5-d][1,2,4]triazin-7-yl}amino)ethyl]phenol]
1 to 10 nM	COc1ccc(-c2nnc(N[C@@H]3CCOC[C@H]3O)n3nc(C)cc23)c(CC(F)(F)F)c1 [Compound 384, (3S,4R)-4-({4-[4-methoxy-2-(2,2,2-trifluoroethyl)phenyl]-2-methylpyrazolo[1,5-d][1,2,4]triazin-7-yl}amino)oxan-3-ol]
1 to 10 nM	COc1ccc(-c2nnc(N[C@@H]3CCCC[C@H]3O)n3nc(C)cc23)c(CC(F)(F)F)c1 [Compound 385, (1R,2R)-2-({4-[4-methoxy-2-(2,2,2-trifluoroethyl)phenyl]-2-methylpyrazolo[1,5-d][1,2,4]triazin-7-yl}amino)cyclohexan-1-ol]
10 to 100 nM	COc1ccc(-c2nnc(NC3CCNC3=O)n3nc(C)cc23)c(CC(F)(F)F)c1 (centres unmarked) [Compound 386, 3-({4-[4-methoxy-2-(2,2,2-trifluoroethyl)phenyl]-2-methylpyrazolo[1,5-d][1,2,4]triazin-7-yl}amino)pyrrolidin-2-one]
1 to 10 nM	COc1ccc(-c2nnc(N[C@H]3C[C@@](C)(O)C3)n3nc(C)cc23)c(CC(F)(F)F)c1 [Compound 387, (1s,3s)-3-({4-[4-methoxy-2-(2,2,2-trifluoroethyl)phenyl]-2-methylpyrazolo[1,5-d][1,2,4]triazin-7-yl}amino)-1-methylcyclobutan-1-ol]
1 to 10 nM	Cc1cc2c(-c3ccc(C(F)(F)F)cc3CC(F)(F)F)nnc(N[C@H]3C[C@@](C)(O)C3)n2n1 [Compound 388, (1s,3s)-1-methyl-3-({2-methyl-4-[2-(2,2,2-trifluoroethyl)-4-(trifluoromethyl)phenyl]pyrazolo[1,5-d][1,2,4]triazin-7-yl}amino)cyclobutan-1-ol]
1 to 10 nM	Cc1cc2c(-c3ccc(C(F)(F)F)cc3CC(F)(F)F)nnc(N[C@@H]3CCCC[C@H]3O)n2n1 [Compound 389, (1R,2R)-2-({2-methyl-4-[2-(2,2,2-trifluoroethyl)-4-(trifluoromethyl)phenyl]pyrazolo[1,5-d][1,2,4]triazin-7-yl}amino)cyclohexan-1-ol]
1 to 10 nM	Cc1ccc(-c2nnc(N[C@H]3C[C@@](C)(O)C3)n3nc(C)cc23)c(CC(F)(F)F)c1 [Compound 390, (1s,3s)-1-methyl-3-({2-methyl-4-[4-methyl-2-(2,2,2-trifluoroethyl)phenyl]pyrazolo[1,5-d][1,2,4]triazin-7-yl}amino)cyclobutan-1-ol]
10 to 100 nM	COc1ccc(-c2nnc(N[C@H]3C[C@@](C)(O)C3)n3nc(C)cc23)c(OC(F)(F)F)c1 [Compound 391, (1s,3s)-3-({4-[4-methoxy-2-(trifluoromethoxy)phenyl]-2-methylpyrazolo[1,5-d][1,2,4]triazin-7-yl}amino)-1-methylcyclobutan-1-ol]
10 to 100 nM	COc1ccc(-c2nnc(N[C@@H]3CCCC[C@H]3O)n3nc(C)cc23)c(OC(F)(F)F)c1 [Compound 392, (1R,2R)-2-({4-[4-methoxy-2-(trifluoromethoxy)phenyl]-2-methylpyrazolo[1,5-d][1,2,4]triazin-7-yl}amino)cyclohexan-1-ol]
10 to 100 nM	O=C1NCCC1Nc1nnc(-c2ccc(C(F)(F)F)cc2OC(F)(F)F)c2ccnn12 (centres unmarked) [Compound 393, 3-({4-[2-(trifluoromethoxy)-4-(trifluoromethyl)phenyl]pyrazolo[1,5-d][1,2,4]triazin-7-yl}amino)pyrrolidin-2-one]
1 to 10 nM	O[C@@H]1CCCC[C@H]1Nc1nnc(-c2ccc(C(F)(F)F)cc2C(F)(F)F)c2ccnn12 [Compound 394, (1R,2R)-2-({4-[2,4-bis(trifluoromethyl)phenyl]pyrazolo[1,5-d][1,2,4]triazin-7-yl}amino)cyclohexan-1-ol]
1 to 10 nM	CC(Nc1nnc(-c2ccc(C(F)(F)F)cc2C(F)(F)F)c2ccnn12)c1cccc(O)c1 (centres unmarked) [Compound 395, 3-[1-({4-[2,4-bis(trifluoromethyl)phenyl]pyrazolo[1,5-d][1,2,4]triazin-7-yl}amino)ethyl]phenol]
10 to 100 nM	O=C1NCCC1Nc1nnc(-c2ccc(C(F)(F)F)cc2C(F)(F)F)c2ccnn12 (centres unmarked) [Compound 396, 3-({4-[2,4-bis(trifluoromethyl)phenyl]pyrazolo[1,5-d][1,2,4]triazin-7-yl}amino)pyrrolidin-2-one]
1 to 10 nM	C[C@]1(O)C[C@@H](Nc2nnc(-c3ccc(C(F)(F)F)cc3OC(F)(F)F)c3ccnn23)C1 [Compound 397, (1s,3s)-1-methyl-3-({4-[2-(trifluoromethoxy)-4-(trifluoromethyl)phenyl]pyrazolo[1,5-d][1,2,4]triazin-7-yl}amino)cyclobutan-1-ol]
1 to 10 nM	O[C@@H]1CCCC[C@H]1Nc1nnc(-c2ccc(C(F)(F)F)cc2OC(F)(F)F)c2ccnn12 [Compound 398, (1R,2R)-2-({4-[2-(trifluoromethoxy)-4-(trifluoromethyl)phenyl]pyrazolo[1,5-d][1,2,4]triazin-7-yl}amino)cyclohexan-1-ol]
1 to 10 nM	C[C@]1(O)C[C@@H](Nc2nnc(-c3ccc(C(F)(F)F)cc3C3CC3)c3cncn23)C1 [Compound 399, (1s,3s)-3-({1-[2-cyclopropyl-4-(trifluoromethyl)phenyl]imidazo[1,5-d][1,2,4]triazin-4-yl}amino)-1-methylcyclobutan-1-ol]
10 to 100 nM	O[C@H]1CCOC[C@@H]1Nc1nnc(-c2ccc(C(F)(F)F)cc2CC(F)(F)F)c2cncn12 [Compound 400, (3S,4S)-3-({1-[2-(2,2,2-trifluoroethyl)-4-(trifluoromethyl)phenyl]imidazo[1,5-d][1,2,4]triazin-4-yl}amino)oxan-4-ol]
10 to 100 nM	O[C@H]1CCCC[C@H]1Nc1nnc(-c2ccc(C(F)(F)F)cc2CC(F)(F)F)c2cncn12 [Compound 401, (1S,2R)-2-({1-[2-(2,2,2-trifluoroethyl)-4-(trifluoromethyl)phenyl]imidazo[1,5-d][1,2,4]triazin-4-yl}amino)cyclohexan-1-ol]
10 to 100 nM	Cc1ccc(-c2nnc(N[C@@H]3CCOC[C@H]3O)n3cncc23)c(CC(F)(F)F)c1 [Compound 402, (3S,4R)-4-({1-[4-methyl-2-(2,2,2-trifluoroethyl)phenyl]imidazo[1,5-d][1,2,4]triazin-4-yl}amino)oxan-3-ol]

Reference: US20250179078A1, “INHIBITORS OF NLRP3” (PTC THERAPEUTICS, INC., priority 2022, published 2025)
